Assay results published in ChEMBL document CHEMBL1201862, “PubChem BioAssay data set” (2004).
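Tested at 5 concentrations; 48 h exposure; 96-well plates; endpoints linearly interpolated, else capped at highest concentration. The concentration for 50% growth inhibition is given as GI50.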 Active and inactive are the calls of the source. Cut-off read from the data, not from the text of the source: active = GI50 up to about 1.1 µM and inactive = higher.

How the values were obtained:
Experiment in all cases: growth of human tumour cells (NCI), 48 h
[1] = system: SNB-75
[2] = system: SK-MEL-28
[3] = system: HOP-92
[4] = system: SF-268
[5] = system: OVCAR-8
[6] = system: CCRF-CEM
[7] = system: HCT-116
[8] = system: SR
[9] = system: NCI-H226
[10] = system: Hs-578T
[11] = system: SK-MEL-5
[12] = system: PC-3
[13] = system: UO-31
[14] = system: NCI/ADR-RES
[15] = system: DU-145
[16] = system: SW-620
[17] = system: A549
[18] = system: HCT-15
[19] = system: MDA-MB-435
[20] = system: OVCAR-5

SMILES	GI50 [1]	GI50 [2]	GI50 [3]	GI50 [4]	GI50 [5]	GI50 [6]	GI50 [7]	GI50 [8]	GI50 [9]	GI50 [10]	GI50 [11]	GI50 [12]	GI50 [13]	GI50 [14]	GI50 [15]	GI50 [16]	GI50 [17]	GI50 [18]	GI50 [19]	GI50 [20]
Nc1ccc(-c2ccc(Nc3cc(S(=O)(=O)O)c(N)c4c3C(=O)c3ccccc3C4=O)cc2)c(S(=O)(=O)O)c1	> 100 µM (inactive)	> 100 µM (inactive)	> 100 µM (inactive)	> 100 µM (inactive)	> 100 µM (inactive)	> 100 µM (inactive)	> 100 µM (inactive)	> 100 µM (inactive)	> 100 µM (inactive)	> 100 µM (inactive)	> 100 µM (inactive)	> 100 µM (inactive)	> 100 µM (inactive)	> 100 µM (inactive)	> 100 µM (inactive)	> 100 µM (inactive)	> 100 µM (inactive)	> 100 µM	> 100 µM (inactive)	> 100 µM (inactive)
CC(=O)Nc1ccc(-c2nc3ccccc3s2)cc1Cl	36.7 µM (inactive)	> 100 µM (inactive)	54.2 µM (inactive)	56.8 µM (inactive)	66.5 µM (inactive)	> 100 µM (inactive)	58.7 µM (inactive)	> 100 µM (inactive)	0.762 µM (active)	17.9 µM (inactive)	> 100 µM (inactive)	> 100 µM (inactive)	27.7 µM (inactive)	> 86.9 µM (inactive)	55.6 µM (inactive)	> 100 µM (inactive)	99.8 µM (inactive)	41.4 µM	> 100 µM (inactive)	0.171 µM (active)
CC(C)(C)C(=O)C(C#N)C(=O)C(C)(C)C	> 100 µM (inactive)	> 100 µM (inactive)	> 100 µM (inactive)	> 100 µM (inactive)	> 100 µM (inactive)	> 100 µM (inactive)	> 100 µM (inactive)	0.0697 µM (active)	> 100 µM (inactive)	> 100 µM (inactive)	> 100 µM (inactive)	> 100 µM (inactive)	> 100 µM (inactive)	> 100 µM (inactive)	> 100 µM (inactive)	> 100 µM (inactive)	> 100 µM (inactive)	> 100 µM	> 100 µM (inactive)	> 100 µM (inactive)
COc1ccccc1CC(=O)C(O)(C(F)(F)F)C(F)(F)F	12.7 µM (inactive)	> 100 µM (inactive)	> 100 µM (inactive)	> 100 µM (inactive)	> 100 µM (inactive)	> 100 µM (inactive)	> 100 µM (inactive)	> 100 µM (inactive)	> 100 µM (inactive)	> 100 µM (inactive)	> 100 µM (inactive)	> 100 µM (inactive)	> 100 µM (inactive)	> 100 µM (inactive)	> 100 µM (inactive)	> 100 µM (inactive)	> 100 µM (inactive)	> 100 µM	> 100 µM (inactive)	> 100 µM (inactive)
CC[C@H](C)[C@H]1NC(=O)[C@@H](NC(=O)[C@@H](CC(C)C)N(C)CC2CCCN2C(=O)C(C)=O)[C@@H](C)OC(=O)[C@H](Cc2ccc(OC)cc2)N(C)C(=O)C2CCCN2C(=O)[C@H](CC(C)C)NC(=O)[C@@H](C)C(=O)[C@H](C(C)C)OC(=O)C[C@@H]1O (stereo not given in full)	0.00317 µM (active)	0.0049 µM (active)	0.00403 µM (active)	0.00488 µM (active)	0.00372 µM (active)	< 0.0025 µM (active)	0.00308 µM (active)	0.00251 µM (active)	0.0152 µM (active)	0.00405 µM (active)	0.00311 µM (active)	0.00406 µM (active)	0.00893 µM (active)	0.0179 µM (active)	< 0.0025 µM (active)	0.00409 µM (active)	0.00356 µM (active)	0.0769 µM	0.00371 µM (active)	0.00393 µM (active)
Cn1c2ccccc2n2c3ncccc3c(=O)c(C#N)c12	12.2 µM (inactive)	44.2 µM (inactive)	19.5 µM (inactive)	18 µM (inactive)	5.27 µM (inactive)	4.07 µM (inactive)	4.81 µM (inactive)	3.73 µM (inactive)	1.79 µM (inactive)	18.9 µM (inactive)	4.45 µM (inactive)	19.5 µM (inactive)	5.62 µM (inactive)	16.3 µM (inactive)	6.5 µM (inactive)	7.85 µM (inactive)	5.2 µM (inactive)	6.18 µM	26.7 µM (inactive)	24.5 µM (inactive)
c1cncc(CNCc2cccnc2)c1	> 100 µM (inactive)	> 100 µM (inactive)	> 100 µM (inactive)	> 100 µM (inactive)	> 100 µM (inactive)	49.2 µM (inactive)	> 100 µM (inactive)	> 100 µM (inactive)	> 100 µM (inactive)	> 100 µM (inactive)	> 100 µM (inactive)	> 100 µM (inactive)	> 100 µM (inactive)	> 100 µM (inactive)	> 100 µM (inactive)	> 100 µM (inactive)	> 100 µM (inactive)	> 100 µM	> 100 µM (inactive)	> 100 µM (inactive)
Clc1nc(-c2ccccc2)nc(Cl)c1Cl	15.7 µM (inactive)	16.8 µM (inactive)	13.9 µM (inactive)	11.6 µM (inactive)	14.6 µM (inactive)	2.54 µM (inactive)	5.6 µM (inactive)	2.69 µM (inactive)	12.1 µM (inactive)	15 µM (inactive)	13.4 µM (inactive)	11.8 µM (inactive)	40.8 µM (inactive)	22.5 µM (inactive)	15.8 µM (inactive)	4.98 µM (inactive)	15.4 µM (inactive)	7.38 µM	12.9 µM (inactive)	15.8 µM (inactive)
CCCCOC(=O)N[C@H]1CCc2cc(OC)c(OC)c(OC)c2-c2ccc(SC)c(=O)cc21	< 0.0109 µM (active)	0.752 µM (active)	< 0.01 µM (active)	< 0.01 µM (active)	< 0.01 µM (active)	< 0.01 µM (active)	< 0.01 µM (active)	< 0.0568 µM (active)	0.0931 µM (active)	< 0.01 µM (active)	< 0.01 µM (active)	0.0127 µM (active)	< 0.0231 µM (active)	< 0.01 µM (active)	< 0.01 µM (active)	< 0.01 µM (active)	< 0.01 µM (active)	< 0.01 µM	< 0.01 µM (active)	0.147 µM (active)
CC(C)(C)OC(=O)NCCNC(=O)CN(CC(=O)O)C1CCCCC1N(CC(=O)O)CC(=O)O (stereo not given)	> 100 µM (inactive)	> 100 µM (inactive)	> 100 µM (inactive)	> 100 µM (inactive)	> 100 µM (inactive)	> 100 µM (inactive)	> 100 µM (inactive)	> 100 µM (inactive)	> 100 µM (inactive)	> 100 µM (inactive)	> 100 µM (inactive)	> 100 µM (inactive)	> 100 µM (inactive)	> 100 µM (inactive)	> 100 µM (inactive)	> 100 µM (inactive)	> 100 µM (inactive)	> 100 µM	> 100 µM (inactive)	> 100 µM (inactive)
O=C1Sc2cc3ccccc3cc2C(=O)Sc2ccc(Br)cc21	4.84 µM (inactive)	3.13 µM (inactive)	7.29 µM (inactive)	6.08 µM (inactive)	2.51 µM (inactive)	1.12 µM (active)	5.45 µM (inactive)	2.45 µM (inactive)	14.9 µM (inactive)	5.09 µM (inactive)	8.3 µM (inactive)	3.43 µM (inactive)	–	3.67 µM (inactive)	4.84 µM (inactive)	3.07 µM (inactive)	8.89 µM (inactive)	2.43 µM	3.48 µM (inactive)	11.8 µM (inactive)
CC12CC(=O)Nc3ccccc3N1C(c1ccccc1)=NO2 (stereo not given)	> 100 µM (inactive)	–	> 100 µM (inactive)	> 100 µM (inactive)	> 100 µM (inactive)	> 100 µM (inactive)	> 100 µM (inactive)	> 100 µM (inactive)	> 100 µM (inactive)	> 100 µM (inactive)	> 100 µM (inactive)	> 100 µM (inactive)	> 100 µM (inactive)	> 100 µM (inactive)	> 100 µM (inactive)	> 100 µM (inactive)	> 100 µM (inactive)	> 100 µM	> 100 µM (inactive)	> 100 µM (inactive)
Cc1ccnc(NC(=S)Nc2ccc([N+](=O)[O-])cc2)c1	44.6 µM (inactive)	> 100 µM (inactive)	31.1 µM (inactive)	63.5 µM (inactive)	35.5 µM (inactive)	> 100 µM (inactive)	> 100 µM (inactive)	> 100 µM (inactive)	> 100 µM (inactive)	24 µM (inactive)	> 100 µM (inactive)	> 100 µM (inactive)	> 100 µM (inactive)	56.5 µM (inactive)	34.6 µM (inactive)	> 100 µM (inactive)	–	> 100 µM	> 100 µM (inactive)	–
COc1cc(C=C(c2ccc(N(C)C)cc2)c2ccc(N(C)C)cc2)c2ccccc2c1OC	36.3 µM (inactive)	93.8 µM (inactive)	> 100 µM (inactive)	> 100 µM (inactive)	> 100 µM (inactive)	18.6 µM (inactive)	35.1 µM (inactive)	22.3 µM (inactive)	41 µM (inactive)	43.2 µM (inactive)	51.9 µM (inactive)	41.6 µM (inactive)	> 100 µM (inactive)	23.4 µM (inactive)	> 100 µM (inactive)	–	> 100 µM (inactive)	40.4 µM	22.3 µM (inactive)	> 100 µM (inactive)
